Reference: ChEMBL document CHEMBL1156304, “Pyridinyl aminohydantoins as small molecule BACE1 inhibitors” (Bioorg Med Chem Lett, 2010)

Tests used:
[1] = Selectivity ratio of IC50 for BACE2 to IC50 for BACE1
Beta-secretase 2 = biological target: T1, Beta-secretase 2 (Homo sapiens, UniProt Q9Y5Z0); assay: Inhibition of BACE2 by FRET assay
T1 sequence (Q9Y5Z0 whole entry): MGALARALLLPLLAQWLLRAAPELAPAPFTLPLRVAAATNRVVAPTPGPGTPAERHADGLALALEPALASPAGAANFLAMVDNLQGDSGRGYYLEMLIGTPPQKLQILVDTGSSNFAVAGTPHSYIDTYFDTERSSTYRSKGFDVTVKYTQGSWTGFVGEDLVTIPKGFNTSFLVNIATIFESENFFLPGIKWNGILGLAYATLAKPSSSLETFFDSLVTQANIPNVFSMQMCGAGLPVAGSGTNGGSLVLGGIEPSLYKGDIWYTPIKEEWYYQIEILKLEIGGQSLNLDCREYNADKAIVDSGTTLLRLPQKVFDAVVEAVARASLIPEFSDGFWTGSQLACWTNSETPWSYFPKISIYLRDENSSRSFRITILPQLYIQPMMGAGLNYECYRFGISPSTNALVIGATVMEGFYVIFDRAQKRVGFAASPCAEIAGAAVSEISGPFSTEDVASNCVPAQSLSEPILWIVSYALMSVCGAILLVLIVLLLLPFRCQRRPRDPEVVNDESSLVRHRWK

Cathepsin D = Cathepsin D (Homo sapiens, UniProt P07339); assay: Inhibition of cathepsin D by FRET assay
Beta-secretase 1 = Beta-secretase 1 (Homo sapiens, UniProt P56817); assay: Inhibition of BACE1 by FRET assay
Beta-secretase 1, sequence (P56817 whole entry): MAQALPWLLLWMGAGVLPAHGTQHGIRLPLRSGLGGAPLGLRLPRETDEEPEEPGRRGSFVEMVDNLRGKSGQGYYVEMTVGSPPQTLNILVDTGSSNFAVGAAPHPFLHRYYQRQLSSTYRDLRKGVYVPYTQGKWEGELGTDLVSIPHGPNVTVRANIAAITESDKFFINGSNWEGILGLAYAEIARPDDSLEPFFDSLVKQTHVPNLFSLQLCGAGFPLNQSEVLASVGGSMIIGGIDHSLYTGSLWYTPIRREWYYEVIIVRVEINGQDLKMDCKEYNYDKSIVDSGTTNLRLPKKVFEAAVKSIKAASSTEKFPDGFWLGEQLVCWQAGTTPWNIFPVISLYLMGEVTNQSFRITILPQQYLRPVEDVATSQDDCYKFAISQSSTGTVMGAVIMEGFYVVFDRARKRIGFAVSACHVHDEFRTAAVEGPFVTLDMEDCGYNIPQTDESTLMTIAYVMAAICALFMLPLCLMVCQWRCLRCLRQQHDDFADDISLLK

Cathepsin D, sequence (P07339 65-162 limits assumed): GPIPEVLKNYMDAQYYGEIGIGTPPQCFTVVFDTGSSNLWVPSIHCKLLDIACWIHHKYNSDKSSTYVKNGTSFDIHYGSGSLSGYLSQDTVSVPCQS
Cathepsin D, sequence (P07339 169-412 limits assumed): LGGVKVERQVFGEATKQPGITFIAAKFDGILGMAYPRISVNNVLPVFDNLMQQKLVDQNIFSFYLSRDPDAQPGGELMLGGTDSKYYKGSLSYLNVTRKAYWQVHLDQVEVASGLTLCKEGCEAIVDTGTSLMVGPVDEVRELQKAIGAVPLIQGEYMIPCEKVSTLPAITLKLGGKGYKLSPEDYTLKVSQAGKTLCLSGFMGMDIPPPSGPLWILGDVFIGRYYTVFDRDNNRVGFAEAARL

| Compound | Ratio IC50 [1] | IC50 (Beta-secretase 2) [nM] | IC50 (Cathepsin D) [nM] | IC50 (Beta-secretase 1) [nM] |
| --- | --- | --- | --- | --- |
| CN1C(=O)C(c2ccccc2)(c2ccncc2)N=C1N (configuration not stated) | 0.8 | – | – | – |
| CN1C(=O)[C@](c2ccncc2)(c2cccc(-c3cc(F)ccc3F)c2)N=C1N | – | 700 | 26400 | – |
| CN1C(=O)C(c2ccncc2)(c2cccc(-c3ccoc3)c2)N=C1N (configuration not stated) | – | 570 | 46800 | – |
| CN1C(=O)C(c2ccncc2)(c2cccc(-c3ccsc3)c2)N=C1N (configuration not stated) | – | 190 | 31600 | – |
| CN1C(=O)C(c2ccncc2)(c2cccc(-c3cnccn3)c2)N=C1N (configuration not stated) | – | 1010 | – | – |
| CN1C(=O)C(c2ccncc2)(c2cccc(-c3cccc(F)c3)c2)N=C1N (configuration not stated) | 1.6 | 80 | 20800 | 50 |
| CN1C(=O)C(c2ccncc2)(c2cccc(-c3cccc(C#N)c3)c2)N=C1N (configuration not stated) | 1 | 40 | 24200 | 40 |
| CN1C(=O)C(c2ccncc2)(c2cccc(-c3cc(F)cc(F)c3)c2)N=C1N (configuration not stated) | 1 | 60 | 34100 | 60 |
| CN1C(=O)[C@@](c2ccncc2)(c2cccc(-c3cc(F)ccc3F)c2)N=C1N | – | 100 | 5500 | – |
| CN1C(=O)C(c2ccncc2)(c2cccc(-c3cc(F)ccc3F)c2)N=C1N (racemic) | – | 120 | 9400 | – |
| CN1C(=O)C(c2ccncc2)(c2cccc(-c3cccnc3F)c2)N=C1N (configuration not stated) | 33 | 1000 | 17400 | 30 |
| CN1C(=O)C(c2ccncc2)(c2cccc(-c3ccccc3)c2)N=C1N (configuration not stated) | 1.1 | – | – | – |
| CN1C(=O)C(c2ccncc2)(c2cccc(-c3cccc(F)c3F)c2)N=C1N (configuration not stated) | 3.3 | 130 | 13100 | 40 |
| CN1C(=O)C(c2ccncc2)(c2cccc(-c3cccc(OC(F)(F)F)c3)c2)N=C1N (configuration not stated) | 0.6 | 140 | 14100 | 250 |
| CN1C(=O)C(c2ccncc2)(c2cccc(-c3cccnc3)c2)N=C1N (configuration not stated) | 8 | – | – | – |
| COc1cccc(-c2cccc(C3(c4ccncc4)N=C(N)N(C)C3=O)c2)c1 (configuration not stated) | 0.7 | 20 | 12200 | 30 |
